Reference: PubChem BioAssay AID2060626 (Molecular Pharmacology Branch, DTP, NCI, 2025)
“And” between values parts separate entries of the source, which are not always exact repeats. Equal entries are not always repeated.

System: 168753-222-R-J1-PDC complex spheroid viability
Assay: Anticancer human tumor 168753-222-R-J1-PDC patient-derived bladder carcinoma cell line growth inhibition [CLK]
Conditions: for viability, T/C: stronger effect = lower value
How it was run: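 Patient-derived tumor cells grown as complex spheroids with HUVEC endothelial cells and mesenchymal stem cells, treated with drug combinations. Concentrations descend in half-log steps from near clinical Cmax, or from 10 microM if Cmax unknown.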

[1] = curve of first compound, second compound 0.0316 µM
[2] = curve of first compound, second compound 0.1 µM
[3] = curve of first compound, second compound 0.316 µM
[4] = curve of first compound, second compound 1 µM
[5] = curve of first compound, second compound 3.16 µM
[6] = curve of first compound, second compound 10 µM
[7] = second compound 0.0316 µM, first compound 0.00316 µM
[8] = second compound 0.0316 µM, first compound 0.01 µM
[9] = second compound 0.0316 µM, first compound 0.0316 µM
[10] = second compound 0.0316 µM, first compound 0.1 µM
[11] = second compound 0.0316 µM, first compound 0.316 µM
[12] = second compound 0.0316 µM, first compound 1 µM
[13] = second compound 0.1 µM, first compound 0.00316 µM
[14] = second compound 0.1 µM, first compound 0.01 µM
[15] = second compound 0.1 µM, first compound 0.0316 µM
[16] = second compound 0.1 µM, first compound 0.1 µM
[17] = second compound 0.1 µM, first compound 0.316 µM
[18] = second compound 0.1 µM, first compound 1 µM
[19] = second compound 0.316 µM, first compound 0.00316 µM
[20] = second compound 0.316 µM, first compound 0.01 µM
[21] = second compound 0.316 µM, first compound 0.0316 µM
[22] = second compound 0.316 µM, first compound 0.1 µM
[23] = second compound 0.316 µM, first compound 0.316 µM
[24] = second compound 0.316 µM, first compound 1 µM
[25] = second compound 1 µM, first compound 0.00316 µM
[26] = second compound 1 µM, first compound 0.01 µM
[27] = second compound 1 µM, first compound 0.0316 µM
[28] = second compound 1 µM, first compound 0.1 µM
[29] = second compound 1 µM, first compound 0.316 µM
[30] = second compound 1 µM, first compound 1 µM
[31] = second compound 3.16 µM, first compound 0.00316 µM
[32] = second compound 3.16 µM, first compound 0.01 µM
[33] = second compound 3.16 µM, first compound 0.0316 µM
[34] = second compound 3.16 µM, first compound 0.1 µM
[35] = second compound 3.16 µM, first compound 0.316 µM
[36] = second compound 3.16 µM, first compound 1 µM
[37] = second compound 10 µM, first compound 0.00316 µM
[38] = second compound 10 µM, first compound 0.01 µM
[39] = second compound 10 µM, first compound 0.0316 µM
[40] = second compound 10 µM, first compound 0.1 µM
[41] = second compound 10 µM, first compound 0.316 µM
[42] = second compound 10 µM, first compound 1 µM
[43] = second compound 0.0316 µM, first compound 3.16 µM
[44] = second compound 0.0316 µM, first compound 10 µM
[45] = second compound 0.1 µM, first compound 3.16 µM
[46] = second compound 0.1 µM, first compound 10 µM
[47] = second compound 0.316 µM, first compound 3.16 µM
[48] = second compound 0.316 µM, first compound 10 µM
[49] = second compound 1 µM, first compound 3.16 µM
[50] = second compound 1 µM, first compound 10 µM
[51] = second compound 3.16 µM, first compound 3.16 µM
[52] = second compound 3.16 µM, first compound 10 µM
[53] = second compound 10 µM, first compound 3.16 µM
[54] = second compound 10 µM, first compound 10 µM
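Note: viability measured after seven days of drug exposure.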
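Throughout, for viability, T/C: luminescence signal used as surrogate for viable cell amount; 100% = DMSO vehicle control wells.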

SMILES: COc1c(OCCCN2CCOCC2)ccc2c3n(c(=NC(=O)c4cnc(N)nc4)nc12)CCN3 + CNC(=O)c1ccc(Nc2nc(OC3CCCC3)c3c(-c4ccc5nc(C)oc5c4)c[nH]c3n2)c(OC)c1
- IC50 [1]: 12 nM
- IC50 [2]: 13.1 nM
- IC50 [3]: 5.16 nM
- IC50 [4]: < 3.16 nM
- IC50 [5]: < 3.16 nM
- IC50 [6]: < 3.16 nM
- viability, T/C [7]: 96.5%
- viability, T/C [8]: 56.4%
- viability, T/C [9]: 17.8%
- viability, T/C [10]: 13.7%
- viability, T/C [11]: 8.52%
- viability, T/C [12]: 1.96%
- viability, T/C [13]: 87.3%
- viability, T/C [14]: 60.8%
- viability, T/C [15]: 14.7%
- viability, T/C [16]: 11.1%
- viability, T/C [17]: 7.84%
- viability, T/C [18]: 1.03%
- viability, T/C [19]: 67.3%
- viability, T/C [20]: 25.6%
- viability, T/C [21]: 12.7%
- viability, T/C [22]: 7.32%
- viability, T/C [23]: 4.55%
- viability, T/C [24]: 0.36%
- viability, T/C [25]: 25%
- viability, T/C [26]: 16.4%
- viability, T/C [27]: 3.59%
- viability, T/C [28]: 0.43%
- viability, T/C [29]: 0.26%
- viability, T/C [30]: 1.09%
- viability, T/C [31]: 14.6%
- viability, T/C [32]: 12.3%
- viability, T/C [33]: 2.46%
- viability, T/C [34]: 0.34%
- viability, T/C [35]: 2.13%
- viability, T/C [36]: 1.79%
- viability, T/C [37]: 12.6%
- viability, T/C [38]: 10.4%
- viability, T/C [39]: 3.75%
- viability, T/C [40]: 2.46%
- viability, T/C [41]: 0.34%
- viability, T/C [42]: 3.45%

SMILES: CC(Nc1ccc2c(c1)OCCn1cc(N3C(=O)OCC3C(F)F)nc1-2)C(N)=O (stereo not given) + CNC(=O)c1ccc(Nc2nc(OC3CCCC3)c3c(-c4ccc5nc(C)oc5c4)c[nH]c3n2)c(OC)c1
- IC50 [1]: 161 nM
- IC50 [2]: 133 nM
- IC50 [3]: 45.8 nM
- IC50 [4]: < 31.6 nM
- IC50 [5]: < 31.6 nM
- IC50 [6]: < 31.6 nM
- viability, T/C [9]: 93.1%
- viability, T/C [10]: 71%
- viability, T/C [11]: 20.2%
- viability, T/C [12]: 15.5%
- viability, T/C [43]: 13.3%
- viability, T/C [44]: 13%
- viability, T/C [15]: 83.7%
- viability, T/C [16]: 60.5%
- viability, T/C [17]: 18.3%
- viability, T/C [18]: 14.3%
- viability, T/C [45]: 13.5%
- viability, T/C [46]: 11.6%
- viability, T/C [21]: 62.5%
- viability, T/C [22]: 23.5%
- viability, T/C [23]: 15%
- viability, T/C [24]: 9.68%
- viability, T/C [47]: 9.36%
- viability, T/C [48]: 9.19%
- viability, T/C [27]: 24.3%
- viability, T/C [28]: 13.5%
- viability, T/C [29]: 6.89%
- viability, T/C [30]: 2.64%
- viability, T/C [49]: 1.07%
- viability, T/C [50]: 2.28%
- viability, T/C [33]: 14.9%
- viability, T/C [34]: 10.1%
- viability, T/C [35]: 3.74%
- viability, T/C [36]: 0.82%
- viability, T/C [51]: 1.82%
- viability, T/C [52]: 3.99%
- viability, T/C [39]: 12.8%
- viability, T/C [40]: 9.3%
- viability, T/C [41]: 3.4%
- viability, T/C [42]: 0.76%
- viability, T/C [53]: 0.78%
- viability, T/C [54]: 1.14%

SMILES: CCc1c2c(nc3ccc(O)cc13)-c1cc3c(c(=O)n1C2)COC(=O)[C@]3(O)CC + CNC(=O)c1ccc(Nc2nc(OC3CCCC3)c3c(-c4ccc5nc(C)oc5c4)c[nH]c3n2)c(OC)c1
- IC50 [1]: 118 nM
- IC50 [2]: 201 nM
- IC50 [3]: 51.8 nM
- IC50 [4]: < 3.16 nM
- IC50 [5]: < 3.16 nM
- IC50 [6]: < 3.16 nM
- viability, T/C [7]: 109%
- viability, T/C [8]: 96.2%
- viability, T/C [9]: 77.2%
- viability, T/C [10]: 48.9%
- viability, T/C [11]: 35.8%
- viability, T/C [12]: 14.6%
- viability, T/C [13]: 99.1%
- viability, T/C [14]: 87.4%
- viability, T/C [15]: 87.8%
- viability, T/C [16]: 50.8%
- viability, T/C [17]: 48.8%
- viability, T/C [18]: 12.8%
- viability, T/C [19]: 82.1%
- viability, T/C [20]: 88.2%
- viability, T/C [21]: 62.5%
- viability, T/C [22]: 30.1%
- viability, T/C [23]: 24.6%
- viability, T/C [24]: 8.79%
- viability, T/C [25]: 35.1%
- viability, T/C [26]: 29.9%
- viability, T/C [27]: 17.4%
- viability, T/C [28]: 14.1%
- viability, T/C [29]: 14.8%
- viability, T/C [30]: 11.5%
- viability, T/C [31]: 18.8%
- viability, T/C [32]: 18.2%
- viability, T/C [33]: 13%
- viability, T/C [34]: 12.1%
- viability, T/C [35]: 13.3%
- viability, T/C [36]: 10.3%
- viability, T/C [37]: 16.9%
- viability, T/C [38]: 15.3%
- viability, T/C [39]: 16.1%
- viability, T/C [40]: 12.6%
- viability, T/C [41]: 13.1%
- viability, T/C [42]: 7.91%

SMILES: CC(Nc1ccc2c(c1)OCCn1cc(N3C(=O)OCC3C(F)F)nc1-2)C(N)=O (stereo not given)
- viability, T/C (compound 0.0316 µM): 86.9% and 78.6%
- viability, T/C (compound 0.1 µM): 45.8% and 69.2%
- viability, T/C (compound 0.316 µM): 20.7% and 22.8%
- viability, T/C (compound 1 µM): 13.3% and 18.8%
- viability, T/C (compound 3.16 µM): 10.3% and 13.1%
- viability, T/C (compound 10 µM): 11% and 14.8%
- IC50 (curve of compound): 88.9 nM and 161 nM

SMILES: Nc1ccn(C2OC(CO)C(O)C2(F)F)c(=O)n1 (stereo not given) + CNC(=O)c1ccc(Nc2nc(OC3CCCC3)c3c(-c4ccc5nc(C)oc5c4)c[nH]c3n2)c(OC)c1
- IC50 [1]: 975 nM
- IC50 [2]: 629 nM
- IC50 [3]: 157 nM
- IC50 [4]: < 31.6 nM
- IC50 [5]: < 31.6 nM
- IC50 [6]: < 31.6 nM
- viability, T/C [9]: 95.2%
- viability, T/C [10]: 73.2%
- viability, T/C [11]: 48.7%
- viability, T/C [12]: 57.2%
- viability, T/C [43]: 51.2%
- viability, T/C [44]: 37.9%
- viability, T/C [15]: 88.4%
- viability, T/C [16]: 75.7%
- viability, T/C [17]: 50.3%
- viability, T/C [18]: 49.9%
- viability, T/C [45]: 34.2%
- viability, T/C [46]: 25.4%
- viability, T/C [21]: 84.2%
- viability, T/C [22]: 64.5%
- viability, T/C [23]: 28%
- viability, T/C [24]: 17.1%
- viability, T/C [47]: 26.8%
- viability, T/C [48]: 22.1%
- viability, T/C [27]: 43.5%
- viability, T/C [28]: 18.9%
- viability, T/C [29]: 17.9%
- viability, T/C [30]: 16.4%
- viability, T/C [49]: 16.9%
- viability, T/C [50]: 17.4%
- viability, T/C [33]: 21%
- viability, T/C [34]: 18.4%
- viability, T/C [35]: 18%
- viability, T/C [36]: 16.8%
- viability, T/C [51]: 16.4%
- viability, T/C [52]: 15.5%
- viability, T/C [39]: 18.2%
- viability, T/C [40]: 18.4%
- viability, T/C [41]: 17.4%
- viability, T/C [42]: 15.4%
- viability, T/C [53]: 17.1%
- viability, T/C [54]: 16.2%
